Drawing on US8735398B2 (Bristol-Myers Squibb Company, priority 2009, dated 2014), this text covers EC50 for 19 compounds.

The subject of the first test is HCV 1b genotype. The experiment in a line: HCV replicon assay (HCV-neo replicon cells, wild-type). It is filed as cell-based, Hepatitis C virus. Conditions: HCV 1b genotype replicon; class symbols; read-out: EC50 Range against HCV 1b. In short, it runs like this: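 Inhibition was tested in replicon-bearing cells, both wild-type HCV-neo and lines with NS5A resistance substitutions, using the O'Boyle et al. 2005 replicon method or luciferase-reporter formats.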
In general terms: A replicon is a self-replicating genome or part of one, used to study replication in cells.
Turning to `O=C(O)CCC(=O)N1CCC[C@H]1C(=O)Nc1ccc(-c2cnc(-c3ccc(NC(=O)[C@@H]4CCCN4C(=O)CCC(=O)O)cc3)o2)cc1` [XY-13, 4,4′-(1,3-oxazole-2,5-diylbis(4,1-phenylenecarbamoyl(2S)-2,1-pyrrolidinediyl))bis(4-oxobutanoic acid)], the half-maximal effective concentration (EC50) – broadly, the concentration that produces a half-maximal response – lay within 1000 to 10000 nM.

For `O=C(Nc1ccc(-c2cnc(-c3ccc(NC(=O)[C@@H]4CCCN4C(=O)Cc4cnc[nH]4)cc3)o2)cc1)[C@@H]1CCCN1C(=O)Cc1c[nH]cn1` [XY-14, (2S)-1-(1H-imidazol-4-ylacetyl)-N-(4-(2-(4-((((2S)-1-(1H-imidazol-5-ylacetyl)-2-pyrrolidinyl)carbonyl)amino)phenyl)-1,3-oxazol-5-yl)phenyl)-2-pyrrolidinecarboxamide (non-preferred name)], the concentration for a half-maximal effect (EC50) was in the range of 1000 to 10000 nM.

Still in this test, the particulars now being: HCV 1b genotype replicon; read-out: EC50 1b.
For the compound `O=C(O)CCC(=O)N1CCC[C@H]1C(=O)Nc1ccc(-c2cnc(-c3ccc(NC(=O)[C@@H]4CCCN4C(=O)CCC(=O)O)cc3)o2)cc1` [XY-13, 4,4′-(1,3-oxazole-2,5-diylbis(4,1-phenylenecarbamoyl(2S)-2,1-pyrrolidinediyl))bis(4-oxobutanoic acid)], the half-maximal effective concentration (EC50) came out at 4540 nM.

The same test, now with this note: Hepatitis C virus, HCV 1b genotype replicon; class symbols; read-out: EC50 Range against HCV 1b.
`O=C(Nc1ccc(-c2cnc(-c3ccc(NC(=O)[C@@H]4CCCN4C(=O)c4cccs4)cc3)o2)cc1)[C@@H]1CCCN1C(=O)c1cccs1` [XY-1, (2S,2′S)-N,N′-(1,3-oxazole-2,5-diyldi-4,1-phenylene)bis(1-(2-thienylcarbonyl)-2-pyrrolidinecarboxamide)]: the concentration for a half-maximal effect (EC50) was 100 to 999 nM.

`N#CC1(C(=O)N2CCC[C@H]2C(=O)Nc2ccc(-c3cnc(-c4ccc(NC(=O)[C@@H]5CCCN5C(=O)C5(C#N)CC5)cc4)o3)cc2)CC1` [XY-2, (2S,2′S)-N,N′-(1,3-oxazole-2,5-diyldi-4,1-phenylene)bis(1-((1-cyanocyclopropyl)carbonyl)-2-pyrrolidinecarboxamide)]: the concentration for a half-maximal effect (EC50) is 100 to 999 nM.

Turning to `COc1cccc(CC(=O)N2CCC[C@H]2C(=O)Nc2ccc(-c3cnc(-c4ccc(NC(=O)[C@@H]5CCCN5C(=O)Cc5cccc(OC)c5)cc4)o3)cc2)c1` [XY-3, (2S,2′S)-N,N′-(1,3-oxazole-2,5-diyldi-4,1-phenylene)bis(1-((3-methoxyphenyl)acetyl)-2-pyrrolidinecarboxamide)], the EC50 lay in the range of 100 to 999 nM.

Consider `O=C(Nc1ccc(-c2cnc(-c3ccc(NC(=O)[C@@H]4CCCN4C(=O)c4cccnc4)cc3)o2)cc1)[C@@H]1CCCN1C(=O)c1cccnc1` [XY-4, (2S,2′S)-N,N′-(1,3-oxazole-2,5-diyldi-4,1-phenylene)bis(1-(3-pyridinylcarbonyl)-2-pyrrolidinecarboxamide)], for which the EC50 was 100 to 999 nM.

For the compound `CN(C)CC(=O)N1CCC[C@H]1C(=O)Nc1ccc(-c2cnc(-c3ccc(NC(=O)[C@@H]4CCCN4C(=O)CN(C)C)cc3)o2)cc1` [XY-5, (2S,2′S)-N,N′-(1,3-oxazole-2,5-diyldi-4,1-phenylene)bis(1-((dimethylamino)acetyl)-2-pyrrolidinecarboxamide)], the EC50 is 1000 to 10000 nM.

Take `O=C(Nc1ccc(-c2cnc(-c3ccc(NC(=O)[C@@H]4CCCN4C(=O)c4ccccn4)cc3)o2)cc1)[C@@H]1CCCN1C(=O)c1ccccn1` [XY-6, (2S,2′S)-N,N′-(1,3-oxazole-2,5-diyldi-4,1-phenylene)bis(1-(2-pyridinylcarbonyl)-2-pyrrolidinecarboxamide)]: the concentration giving a half-maximal response (EC50) is 1000 to 10000 nM.

Take `O=C(Nc1ccc(-c2cnc(-c3ccc(NC(=O)[C@@H]4CCCN4C(=O)c4cc(F)cc(F)c4)cc3)o2)cc1)[C@@H]1CCCN1C(=O)c1cc(F)cc(F)c1` [XY-7, (2S,2′S)-N,N′-(1,3-oxazole-2,5-diyldi-4,1-phenylene)bis(1-(3,5-difluorobenzoyl)-2-pyrrolidinecarboxamide)]: the concentration giving a half-maximal response (EC50) was 100 to 999 nM.

For the compound `COCCOCC(=O)N1CCC[C@H]1C(=O)Nc1ccc(-c2cnc(-c3ccc(NC(=O)[C@@H]4CCCN4C(=O)COCCOC)cc3)o2)cc1` [XY-8, (2S,2′S)-N,N′-(1,3-oxazole-2,5-diyldi-4,1-phenylene)bis(1-((2-methoxyethoxy)acetyl)-2-pyrrolidinecarboxamide)], the 50% effective concentration (EC50) is 1000 to 10000 nM.

With `CCCC(C)C(=O)N1CCC[C@H]1C(=O)Nc1ccc(-c2cnc(-c3ccc(NC(=O)[C@@H]4CCCN4C(=O)C(C)CCC)cc3)o2)cc1` (stereo partly drawn) [XY-9, (2S,2′S)-N,N′-(1,3-oxazole-2,5-diyldi-4,1-phenylene)bis(1-(2-methylpentanoyl)-2-pyrrolidinecarboxamide)], the EC50 is 100 to 999 nM.

Take `O=C(Nc1ccc(-c2cnc(-c3ccc(NC(=O)[C@@H]4CCCN4C(=O)c4ccccc4F)cc3)o2)cc1)[C@@H]1CCCN1C(=O)c1ccccc1F` [XY-10, (2S,2′S)-N,N′-(1,3-oxazole-2,5-diyldi-4,1-phenylene)bis(1-(2-fluorobenzoyl)-2-pyrrolidinecarboxamide)]: the concentration giving a half-maximal response (EC50) is 100 to 999 nM.

Take `COc1ccc2[nH]cc(CC(=O)N3CCC[C@H]3C(=O)Nc3ccc(-c4cnc(-c5ccc(NC(=O)[C@@H]6CCCN6C(=O)Cc6c[nH]c7ccc(OC)cc67)cc5)o4)cc3)c2c1` [XY-11, (2S,2′S)-N,N′-(1,3-oxazole-2,5-diyldi-4,1-phenylene)bis(1-((5-methoxy-1H-indol-3-yl)acetyl)-2-pyrrolidinecarboxamide)]: the EC50 lay within 100 to 999 nM.

For the compound `CC(Oc1cccc(Cl)c1)C(=O)N1CCC[C@H]1C(=O)Nc1ccc(-c2cnc(-c3ccc(NC(=O)[C@@H]4CCCN4C(=O)C(C)Oc4cccc(Cl)c4)cc3)o2)cc1` (stereo partly drawn) [XY-12, (2S,2′S)-N,N′-(1,3-oxazole-2,5-diyldi-4,1-phenylene)bis(1-(2-(3-chlorophenoxy)propanoyl)-2-pyrrolidinecarboxamide)], the EC50 lay within 100 to 999 nM.

In the case of `O=C(Nc1ccc(-c2cnc(-c3ccc(NC(=O)[C@@H]4CCCN4C(=O)C4CCCCC4)cc3)o2)cc1)[C@@H]1CCCN1C(=O)C1CCCCC1` [XY-15, (2S,2′S)-N,N′-(1,3-oxazole-2,5-diyldi-4,1-phenylene)bis(1-(cyclohexylcarbonyl)-2-pyrrolidinecarboxamide)], the 50% effective concentration (EC50) was in the range of 100 to 999 nM.

Take `CC1CC1C(=O)N1CCC[C@H]1C(=O)Nc1ccc(-c2cnc(-c3ccc(NC(=O)[C@@H]4CCCN4C(=O)C4CC4C)cc3)o2)cc1` (stereo partly drawn) [XY-16, (2S,2′S)-N,N′-(1,3-oxazole-2,5-diyldi-4,1-phenylene)bis(1-((2-methylcyclopropyl)carbonyl)-2-pyrrolidinecarboxamide)]: the EC50 lay in the range of 100 to 999 nM.

In the case of `CC(C)(CCl)C(=O)N1CCC[C@H]1C(=O)Nc1ccc(-c2cnc(-c3ccc(NC(=O)[C@@H]4CCCN4C(=O)C(C)(C)CCl)cc3)o2)cc1` [XY-17, (2S,2′S)-N,N′-(1,3-oxazole-2,5-diyldi-4,1-phenylene)bis(1-(3-chloro-2,2-dimethylpropanoyl)-2-pyrrolidinecarboxamide)], the concentration for a half-maximal effect (EC50) lay within 100 to 999 nM.

Consider `O=C(Nc1ccc(-c2cnc(-c3ccc(NC(=O)[C@@H]4CCCN4C(=O)C4CCOC4)cc3)o2)cc1)[C@@H]1CCCN1C(=O)C1CCOC1` (stereo partly drawn) [XY-18, (2S,2′S)-N,N′-(1,3-oxazole-2,5-diyldi-4,1-phenylene)bis(1-(tetrahydro-3-furanylcarbonyl)-2-pyrrolidinecarboxamide)], for which the concentration for a half-maximal effect (EC50) fell in the range of 4.57 to 99 nM.

On to `CCCC(C)(C)C(=O)N1CCC[C@H]1C(=O)Nc1ccc(-c2cnc(-c3ccc(NC(=O)[C@@H]4CCCN4C(=O)C(C)(C)CCC)cc3)o2)cc1` [XY-19, (2S,2′S)-N,N′-(1,3-oxazole-2,5-diyldi-4,1-phenylene)bis(1-(2,2-dimethylpentanoyl)-2-pyrrolidinecarboxamide)], for which the EC50 lay within 1000 to 10000 nM.

The same test, now with this note: Hepatitis C virus, HCV 1b genotype replicon; read-out: EC50 1b.
In the case of `COc1cccc(CC(=O)N2CCC[C@H]2C(=O)Nc2ccc(-c3cnc(-c4ccc(NC(=O)[C@@H]5CCCN5C(=O)Cc5cccc(OC)c5)cc4)o3)cc2)c1` [XY-3, (2S,2′S)-N,N′-(1,3-oxazole-2,5-diyldi-4,1-phenylene)bis(1-((3-methoxyphenyl)acetyl)-2-pyrrolidinecarboxamide)], the concentration for a half-maximal effect (EC50) was 321 nM.

Turning to `CC(Oc1cccc(Cl)c1)C(=O)N1CCC[C@H]1C(=O)Nc1ccc(-c2cnc(-c3ccc(NC(=O)[C@@H]4CCCN4C(=O)C(C)Oc4cccc(Cl)c4)cc3)o2)cc1` (stereo partly drawn) [XY-12, (2S,2′S)-N,N′-(1,3-oxazole-2,5-diyldi-4,1-phenylene)bis(1-(2-(3-chlorophenoxy)propanoyl)-2-pyrrolidinecarboxamide)], the 50% effective concentration (EC50) worked out at 220 nM.
